Results as given in patent publication US7998754B2, “In vitro method for the simultaneous detection and identification of antibiotics of different classes and corresponding diagnostic kit” (Unisensor S.A., priority 2005, dated 2011).
Like-named read-outs stand apart in the source and are kept apart here.

How the values were obtained:
[1] = system: biotinylated anti-sulfadimethoxin antibody; assay: Example 3 dipstick test in milk, sulfamide capture zone (format 2); type: binding
Method: (§1) The reactive mixture comprises: • 5 parts of β-lactame receptor (RSA) at a concentration of 360 nM; • 10 parts of a monoclonal anti-RSA antibody attached to colloidal gold (OD=10 at 520 nm); • 1 part of biotinylated and diluted anti-sulfadimethoxin in NaPi 50 mM, NaCl 150 mM, pH 7.8; • 10 parts of a dilution of BSA-sulfadimethoxin-gold of 40 nm; • 24 parts of Hepes buffer 120 mM, pH 8, BSA 2%, Dextran 1%, sucrose 5%. This mixture is prepared either as required or lyophilisated for 20 hours. Biotinylation of the Anti-Sulfadimethoxin Antibody
825 μL of a solution comprising 5 mg/ml of anti-sulfadimethoxin antibody dialysed in a carbonate buffer 100 mM, pH 9.2 are incubated in the presence of 165 μL of a solution of biotin-LC-NHS at 1.5 mg/ml (available at Perbio, Inc.) for 2 hours at 25° C. sheltered from light. The reaction is blocked by the addition of 10 μL of a solution of a Tris buffer 1M pH 8 for 30 minutes before dialysis 2× for 10 hours against a buffer of NaPi 50 mM, NaCl 150 mM, pH 7.8.
The preparation of BSA-sulfadimethoxin described in example no. 2 is used fixed to particles of colloidal gold in a protocol similar to that described in example no. 1 for preparing the control BSA-gold solution.
(§2) The recovery system is identical to that of example 1. However, in the present case, it is the biotinylated antisulfamide antibody that will be recovered in the avidine fixed at the second capture point above the control zone.
(§3) 200 μL of cold milk are incubated for 15 minutes at 30° C. in the presence of 50 μL of the reagents prepared above. After this first incubation, the above-described recovery element is immersed in the solution. Final interpretation is made after a second incubation of 15 minutes.

β-lactame receptor (RSA) [2] = target: T1, β-lactame receptor (RSA) (Staphylococcus aureus, UniProt P18357); type: binding; conditions: milk
T1 construct: made in house
T1 sequence (P18357 331-585 limits assumed): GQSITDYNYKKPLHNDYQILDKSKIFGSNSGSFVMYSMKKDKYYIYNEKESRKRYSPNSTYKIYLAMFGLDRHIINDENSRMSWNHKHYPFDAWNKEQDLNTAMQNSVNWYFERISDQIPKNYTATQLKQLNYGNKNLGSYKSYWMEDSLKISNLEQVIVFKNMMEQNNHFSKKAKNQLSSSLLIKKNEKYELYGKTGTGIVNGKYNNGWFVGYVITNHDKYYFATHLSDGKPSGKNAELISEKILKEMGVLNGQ
Method: (§4) This mixture is either prepared as required or lyophilisated for 20 hours.
as §3

β-lactame receptor (RSA) [3] = target: T1, β-lactame receptor (RSA); type: binding; conditions: milk; remark: listed apart in the source
Method: (§5) This mixture is prepared either as required or lyophilisated for 20 hours. The Recovery System
(§6) The other capture zones are identical but differently positioned, as in FIG. 2.
(§7) A single control zone serves as a reference for the three markers.
(§8) 200 μL of cold milk are incubated at 50° C. in the presence of 50 μl of the reagents prepared and/or lyophilisated as above. After 3 minutes of incubation at 50° C., the above-described recovery element is immersed in the solution. The final interpretation is made after 3 minutes of incubation by means of an optical dipstick reader available at Matest (Germany).
(§9) As a general rule, if the ratio of the intensities of the concerned test signal relative to the control signal is less than or equal to 1, the sample is considered as positive for the parameter (compound) concerned.

[4] = system: tetracycline receptor (TetR); assay: Example 5 dipstick test in milk, tetracycline capture zone (format 1); type: binding, E. Coli
Method: as §4, §3

[5] = system: tetracycline receptor (TetR); assay: Example 2 three-parameter dipstick test in milk, tetracycline capture zone (format 1); type: binding, E. Coli
Method: as §5, §6, §7, §8, §9

β-lactame receptor (RSA) [6] = target: T1, β-lactame receptor (RSA); type: binding; conditions: milk; remark: listed apart in the source
Method: as §1, §2, §3

[7] = system: tetracycline receptor (TetR); assay: Example 4 dipstick test in meat (pig muscle) extract, tetracycline capture zone (format 2); type: binding, E. Coli
Method: (§10) This mixture is either prepared as required or lyophilisated for 20 hours. The Recovery System
(§11) The recovery system is similar to that of example 1. However, in the present case, it is an anti-mouse antibody that forms the first capture point where the monoclonal anti-TetR antibody will be recovered and it is a chicken anti-rabbit antibody that forms the second capture point where the antisulfamide antibody will be recovered.
(§12) 30 ml of a buffer of NaPi 50 mM, pH 8 is added to 10 g of pig muscle and the mixture is mixed with a mixer of type MiniMix (Interscience, F) for 2 minutes. The solution, collected in an Eppendorf tube, is then centrifuged for 1 minute at 6,000 rpm to recover the supernatant from it. 200 μL of supernatant are incubated for 15 minutes at 25° C. in the presence of 50 μL of the reagents prepared above. After this first incubation, the above-described recovery element is immersed in the solution. The final interpretation is made after a second incubation of 15 minutes.

[8] = system: polyclonal antisulfamide rabbit antibody; assay: Example 5 dipstick test in milk, sulfamide capture zone (format 2); type: binding
Method: as §4, §3

[9] = system: anti-sulfadimethoxin antibody; assay: Example 2 three-parameter dipstick test in milk, sulfadimethoxin capture zone (format 1); type: binding
Method: as §5, §6
The preparation is achieved by the procedure described by Dixon-Holland and Katz^(9). 100 mg of sulfadimethoxin and 200 mg of BSA solubilized in 25 ml of a mixture, comprising two parts of a phosphate buffer of 50 mM, pH 7.2 and 1 part of dioxane, are incubated in the presence of 120 μL of 25% glutaraldehyde stirred for 3 hours at 25° C. The solution is then dialysed for 6 days at 4° C. against 100 volumes of a buffer of NaPi 50 mM, pH 7.2 with a change of buffer every 12 hours.
as §7, §8, §9

[10] = system: antisulfamide rabbit antibody; assay: Example 4 dipstick test in meat (pig muscle) extract, sulfamide capture zone (format 2); type: binding
Method: as §10, §11, §12

Ratio of the measurement intensities B/C (β-lactame receptor (RSA) [2]; sulfamide 50 ppb): 2.1
Ratio of the measurement intensities B/C (β-lactame receptor (RSA) [2]; sulfamide 100 ppb): 1.8
Ratio of the measurement intensities B/C (β-lactame receptor (RSA) [2]; sulfamide 200 ppb): 1.8
Ratio of the measurement intensities B/C (β-lactame receptor (RSA) [3]; sulfamide 50 ppb): 2.4
Ratio of the measurement intensities B/C (β-lactame receptor (RSA) [3]; sulfamide 100 ppb): 2.2
Ratio of the measurement intensities B/C (β-lactame receptor (RSA) [3]; sulfamide 150 ppb): 1.9
Ratio of the measurement intensities B/C (β-lactame receptor (RSA) [3]; sulfamide 200 ppb): 2.4
Ratio of the measurement intensities T/C ([4]; sulfamide 50 ppb): 2.8
Ratio of the measurement intensities T/C ([4]; sulfamide 100 ppb): 2.7
Ratio of the measurement intensities T/C ([4]; sulfamide 200 ppb): 3
Ratio of the measurement intensities T/C ([5]; sulfamide 50 ppb): 1.9
Ratio of the measurement intensities T/C ([5]; sulfamide 100 ppb): 1.9
Ratio of the measurement intensities T/C ([5]; sulfamide 150 ppb): 2.1
Ratio of the measurement intensities T/C ([5]; sulfamide 200 ppb): 2.1
Ratio of the measurement intensities B/C (β-lactame receptor (RSA) [6]; sulfamide 50 ppb): 1.95
Ratio of the measurement intensities B/C (β-lactame receptor (RSA) [6]; sulfamide 100 ppb): 1.9
Ratio of the measurement intensities B/C (β-lactame receptor (RSA) [6]; sulfamide 150 ppb): 2.2
Ratio of the measurement intensities B/C (β-lactame receptor (RSA) [6]; sulfamide 200 ppb): 2.1
Ratio of the measurement intensities T/C ([7]; sulfamide 50 ppb): 3.4
Ratio of the measurement intensities T/C ([7]; sulfamide 100 ppb): 3.1
Ratio of the measurement intensities T/C ([7]; sulfamide 150 ppb): 3.4
Ratio of the measurement intensities T/C ([7]; sulfamide 200 ppb): 3
SMILES: COc1cc(NS(=O)(=O)c2ccc(N)cc2)nc(OC)n1 [Sulfadimethoxin]
Ratio of the measurement intensities S/C ([1]; sulfamide 50 ppb): 2
Ratio of the measurement intensities S/C ([1]; sulfamide 100 ppb): 1
Ratio of the measurement intensities S/C ([1]; sulfamide 150 ppb): 0.85
Ratio of the measurement intensities S/C ([1]; sulfamide 200 ppb): 0.7
Ratio of the measurement intensities S/C ([1]; β-lactame 4 + sulfamide 100 ppb together): 0.95
Ratio of the measurement intensities S/C ([8]; sulfamide 50 ppb): 1.3
Ratio of the measurement intensities S/C ([8]; sulfamide 100 ppb): 0.9
Ratio of the measurement intensities S/C ([8]; sulfamide 200 ppb): 0.3
Ratio of the measurement intensities S/C ([8]; β-lactame 4 + tetracycline 100 + sulfamide 100 ppb together): 0.8
Ratio of the measurement intensities S/C ([9]; ampicillin 4 + tetracycline 75 + sulfamide 100 ppb together): 0.7
Ratio test/control ([9]; at the detection limit concentration): 0.8
Concentration detection limit ([9]; sulfadimethoxin, three-parameter test): 100 ppb
Ratio of the measurement intensities S/C ([9]; sulfamide 50 ppb): 1.3
Ratio of the measurement intensities S/C ([9]; sulfamide 100 ppb): 0.8
Ratio of the measurement intensities S/C ([9]; sulfamide 150 ppb): 0.6
Ratio of the measurement intensities S/C ([9]; sulfamide 200 ppb): 0.4
Ratio of the measurement intensities S/C ([10]; sulfamide 50 ppb): 1.6
Ratio of the measurement intensities S/C ([10]; sulfamide 100 ppb): 1
Ratio of the measurement intensities S/C ([10]; sulfamide 150 ppb): 0.85
Ratio of the measurement intensities S/C ([10]; sulfamide 200 ppb): 0.7
Ratio of the measurement intensities S/C ([10]; tetracycline 100 + sulfamide 100 ppb together): 0.95
